The data set is described as follows: in vivo. Set-up: species or system mice. The note with it: athymic nude Foxn1^nu, mouse, iv, 13 MBq, total radioactivity. The procedure:
Dynamic PET scans were acquired for 1 hour post-injection of the investigated radiopharmaceutical. The mice were euthanized using carbon dioxide at 4 hours post-injection, the bladder was mechanically emptied, and static PET scans were acquired for 30 min. PET images were obtained using the β-CUBE PET scanner system (MOLECUBES) and were decay corrected and reconstructed with the VivoQuant software version 4.0. Tomograms and helical CT scans of the whole mouse were first acquired using a NanoSPECT/CTTM scanner (Bioscan Inc.). CT images were reconstructed using CTReco (version r1.146), resulting in a pixel size of 0.2 mm. InVivoScope (version 1.43, Bioscan Inc.) software was used to generate the maximum intensity projection (MIP) of the co-registered PET/CT images presented in FIG. 10.

*1 amine or outer side, *2 acyl side, *3 side chain or, on linkers, in order; H or OH if unused. Where a SMILES comes first, the peptide text is derived from it. Bridges are numbered along the chain shown (N, C = ends). [ ]: non-standard residue; d: D form. The star is where a group is joined. NODAGA = O=C(O)CN1CCN(CC(=O)O)CCN(C(CCC(=O)*)C(=O)O)CC1; X1 = NC(=O)Nc1ccc(CC(N[*:1])C(=O)[*:2])cc1; Phe(4-Cl) = N[CH](Cc1ccc(Cl)cc1)C(=O)O

For `CC(O)C1NC(=O)C(CCCCN)NC(=O)C(Cc2ccc(NC(N)=O)cc2)NC(=O)C(Cc2ccc(O)cc2)NC(=O)C(NC(=O)C(Cc2ccc(Cl)cc2)NC(=O)CCC(C(=O)O)N2CCN(CC(=O)O)CCN(CC(=O)O)CC2)CSSCC(C(=O)NC(Cc2ccc(O)cc2)C(N)=O)NC1=O` (stereo not shown) [[^61Cu]Cu-NODAGA-LM3, metal not drawn] ({NODAGA}-[Phe(4-Cl)]CY[X1]KTCY-NH2; disulfide 2-7; configuration not given here), the tissue to tissue ratio was determined as 4.

The record behind these values is patent US20260151517A1, “SOMATOSTATIN RECEPTOR-TARGETING RADIOPHARMACEUTICALS AND USES THEREOF” (Nuclidium AG, priority 2024, published 2026).
